What was measured:
[1] = tested on: fibrinogen found naturally in plasma; experiment: Cross-linking time of plasma into 3DeTME matrix; assay type: biochemical, human
Procedure: (§1) Methods: 3DeTME cultures are formed through the cross-linking of fibrinogen found naturally in plasma. Cross-linking time was assessed by measuring the time necessary to achieve matrix cross-linking using three relevant cross-linkers of the blood coagulation process including Thrombin (0-5 mg/ml), CaCl2 (0-5 mg/ml), and Factor XIII (0-6 mg/ml). The stabilization effects of preventing fibrin degradation and stability improvement in the scaffold was assessed by surveying several chemical antifibrinolytic agents including tranexamic acid (AMCHA) (0-10 mg/ml), Aprotinin ([…]), epsilon-aminocaproic acid (EACA) (0-2.5 mg/ml), and 4-aminomethylbenzoic acid (PAMBA) (0-2.5 mg/ml). The stability of the scaffold was studied by measuring each scaffold weight at day 0 and again measuring scaffold weight at the conclusion of a 3 week time period. 3DeTME culture scaffold structure and morphology was analyzed with scanning electron microscopy (SEM) using a FEI Quanta™ 450 Scanning Electron Microscope at multiple magnifications. The stiffness of the scaffolds was measured by atomic force microscopy (AFM). The Young's modulus was estimated by fitting a modified Hertz model onto the AFM indentation curve using the built in function of AFM software (Asylum Research). Plasma from cancer patients and healthy subjects was analyzed for fibrinogen content through the clotting method of Clauss. The Clauss fibrinogen assay is a quantitative, clot-based, functional assay. The assay measures the ability of fibrinogen to form fibrin clot after being exposed to a high concentration of purified thrombin. Briefly, plasma samples were loaded into the STA-R™ Evolution Expert Series Hemostasis System (Diagnostica Stago Inc., Parsippany, N.J.) and automated testing was carried out by the analyzer. […] 3DeTME culture supernatants were collected and analyzed by a C-Series Custom Cytokine Antibody Array (RayBiotech Inc., Norcross, Ga.) according to the instructions provided by the manufacturer. […] The chemiluminescence signal intensity of each spot was quantified by densitometric analysis (VisionWorks Software). […]

MDA-MB-231 = experiment: 3DeTME drug screening, relative cell count and GR values; assay type: cell-based, human; conditions: 0.1 nM-300 μM, day 7
Procedure: (§2) Methods: Three breast cancer (BCa) cell lines were previously labeled with DiD and incorporated in 3DeTME. Half a day after plating, cells were treated with a DMSO control (γCtrl) and increasing concentrations 0.1 nM-300 μM of seven standard-of-care chemotherapeutic drugs including Methotrexate (MTX), Paclitaxel (PTX), Capecitabine (CAP), Cyclophosphamide Monohydrate (CYCLO), Carboplatin (CARBO), Epirubicin Hydrochloride (EPI), and Docetaxel (DTX). Treatments were added on top of 3DeTME in order to simulate drug diffusion into a tumor. Treatments were refreshed at day 4 and BCa cells were retrieved from the different cultures for analysis at day 0.5 (γ0) and day 7. Samples were prepared in PBS for flow cytometry by adding counting beads (424902, Biolegend, CA) in addition to SytoxTM green dead cell stain (excitation 504 nm, emission 523 nm) ([…], Thermo Fisher Scientific, MA) for viability to each sample. BCa cells were identified by gating live cells with a DiD+ signal using the FL4 channel on BD AccuriTM C6 instrument (CFlow Software) (BD Biosciences). A minimum of 5×103 events was acquired per sample and BCa cell counts were acquired and data was analyzed using the FlowJoTM v10 (Ashland, Oreg.) software. Relative cell count and Growth rate (GR) values. The GR values show the partial inhibition effect of the drug when it achieves GR values from 0 to 1, with the cytostatic effect being represented when the value is equal to 0 and the cytotoxic effect being represented when it lies between 0 and -1.

[2] = tested on: three breast cancer (BCa) cell lines; experiment: as above; assay type: cell-based, human; conditions: day 7; for response among the BCa cell lines: 3DeTME, 0.1 nM-300 μM
Procedure: as §2

MCF7 = experiment: as above; assay type: cell-based, human; conditions: 0.1 nM-300 μM, day 7
Procedure: Methods: Three breast cancer (BCa) cell lines were previously labeled with DiD and incorporated in 3DeTME. Half a day after plating, cells were treated with a DMSO control (γCtrl) and increasing concentrations 0.1 nM-300 μM of seven standard-of-care chemotherapeutic drugs including Methotrexate (MTX), Paclitaxel (PTX), Capecitabine (CAP), Cyclophosphamide Monohydrate (CYCLO), Carboplatin (CARBO), Epirubicin Hydrochloride (EPI), and Docetaxel (DTX). Treatments were added on top of 3DeTME in order to simulate drug diffusion into a tumor. Treatments were refreshed at day 4 and BCa cells were retrieved from the different cultures for analysis at day 0.5 (γ0) and day 7. Samples were prepared in PBS for flow cytometry by adding counting beads (424902, Biolegend, CA) in addition to SytoxTM green dead cell stain (excitation 504 nm, emission 523 nm) ([MUT], Thermo Fisher Scientific, MA) for viability to each sample. BCa cells were identified by gating live cells with a DiD+ signal using the FL4 channel on BD AccuriTM C6 instrument (CFlow Software) (BD Biosciences). A minimum of 5×103 events was acquired per sample and BCa cell counts were acquired and data was analyzed using the FlowJoTM v10 (Ashland, Oreg.) software. Relative cell count and Growth rate (GR) values. […]

[3] = tested on: fibrin degradation in the scaffold; experiment: 3DeTME scaffold integrity and stability (weight) with antifibrinolytic agents; design: species or system human
Procedure: as §1

[4] = tested on: EpCAM+ BCa cells from patient biopsies; experiment: Survival of primary patient BCa cells in matched-plasma 3DeTME cultures; assay type: cell-based, human; conditions: 7 days
Procedure: Methods: To evaluate the association between different variables, correlation tests were performed using the ggpubr R™ package. The Pearson correlation (r) was assessed in order to measure the linear dependence between two variables after confirmation of a normal distribution of the data. In order to assess the predictive value of the drug response metrics obtained in the 3DeTME assays with cell lines, we compared them with metric data obtained from literature relevant for 2D models (IC50) and other 3D models (IC50), as well as effective concentrations in patients from phase I or II studies that examined the pharmacokinetics of the tested chemotherapies (steady state concentration, Css). A scatterplot correlation graph allowed us to establish the strength, direction and form of the relationship between the in vitro models and the Css clinical data, with Pearson correlation coefficients (r) that were calculated to measure the strength of those relationships. […] Small organoids and single cells cultures were grown and analyzed at days 0.5 (γ0), 3, and 7. […] BCa cell counts were acquired and data was analyzed using FlowJo™ v10 (Ashland, Oreg.). Data was normalized to a predetermined number of counting beads, the proliferation of each condition (fold of γ0) and survival (% of control) was calculated and compared.

[5] = tested on: CD8+ T cell infiltration (PD-L1 blockade); experiment: CD8+ T cell infiltration into 3DeTME matrices seeded with BCa cells; assay type: cell-based, human; conditions: 3DeTME tumorous (1.5% O2); 5 μM for the first 4 days; read at day 7
Procedure: Methods: 3DeTME cultures were grown with cancer cells for 4 days, while being exposed to variable O2 environments (21% and 1.5% O2). Peripheral blood mononuclear cells (PBMCs) were incorporated at day 4 as a cell suspension in the medium added on the top of the matrix, while being exposed to the same O2 environment up to day 7, (FIG. 5A). Oxygen partial pressure (pO2) levels were measured in BCa cell-seeded 3DeTME matrices incubated under variable O2 environments (21% and 1.5% O2) after 0, 2, 4 and 7 days of culture. 3DeTME scaffolds containing BCa cells were profiled along the z-direction with an oxygen microsensor (Needle-Type Oxygen Microsensor NTH-PSt7, PreSens, Regensburg, Germany) and a manual micromanipulator (FIG. 5B). Briefly, to record oxygen pressure, the sensor was introduced into the geometric center (3 measure points) of the 3DeTME and moved from the border between the media and 3DeTME (top) in 10 μm steps towards the bottom of the well plate, as illustrated in FIG. 5C. […]
Methods: Differences in lymphocyte infiltration into 3DeTME scaffolds as a result of different oxygen content were assessed. PBMCs were incorporated as cell suspension in the medium added on the top of the matrix at day 4 and analyzed at day 7. […] Mean absolute numbers of CD3+, CD4+, CD8+ and CD19+ cells (normalized to beads) were determined in each experimental group. […]

[6] = 5 and 10 mg/ml, weight at day 24 vs day 0

## thrombin
[1]; cross-linker at 5 mg/ml
  cross-linking time: 5 min

## N.N.O=C([O-])C1(C(=O)[O-])CCC1.[Pt+2] [carboplatin, Carboplatin]
MDA-MB-231
  sensitivity of the cell line relative to the other BCa cell lines: most sensitive
[2]
  response among the BCa cell lines: heterogeneous response

## CCCCCOC(=O)Nc1nc(=O)n([C@@H]2O[C@H](C)[C@@H](O)[C@H]2O)cc1F [capecitabine, Capecitabine]
[2]; over the concentrations tested
  type of drug effect (GR value): cytostatic

## CN(Cc1cnc2nc(N)nc(N)c2n1)c1ccc(C(=O)N[C@@H](CCC(=O)O)C(=O)O)cc1 [methotrexate, Methotrexate]
[2]
  response among the BCa cell lines: heterogeneous response
MCF7
  sensitivity of the cell line relative to the other BCa cell lines: most resistant

## [Ca+2].[Cl-].[Cl-] [CaCl2, calcium chloride]
[1]; cross-linker at 1 mg/ml
  cross-linking time (fastest): 4 min

## NCCCCCC(=O)O [epsilon-aminocaproic acid]
[3]; at the concentrations tested (0-2.5 mg/ml), day 24 vs day 0
  integrity benefit: not able to sustain an integrity benefit

## Factor XIII: cross-linker of the blood coagulation process, required activation by calcium
[1]; cross-linker at 6 mg/ml, activated by incorporating calcium
  cross-linking time (fastest): over 40 min

## NC[C@H]1CC[C@H](C(=O)O)CC1 [tranexamic acid, trans-4-(aminomethyl)cyclohexanecarboxylic acid]
[3]; [6]
  weight gain as share of total weight: around 10%
  weight gain of 3D culture: about 24 mg

## CC(C)(C#N)c1cc(Cn2cncn2)cc(C(C)(C)C#N)c1 [Arimidex]
[4]; Homo sapiens, 168 h, "responder" patient, read-out: survival of BCa cells (% of control)
  activity at 45 µM: 17%
[4]; patient with "resistance" clinical outcome, 45 μM
  survival of BCa cells: little to no effect

## Durvalumab: selective, high-affinity human IgG1 mAb that blocks programmed cell death ligand-1 (PD-L1) binding to PD-1
[5]
  CD8 infiltration: did reverse CD8 infiltration

Source: patent US20220228124A1, “Three-Dimensional Cross-Linked Scaffolds Of Peripheral Blood Plasma And Their Use” (SANFORD HEALTH, priority 2019, published 2022)
